Experimental data published in patent US20250109370A1, “METHOD FOR PRODUCING CELL SUPPORT COMPOSITE, METHOD FOR PRODUCING DRUG EVALUATION APPARATUS, DRUG EVALUATION METHOD, AND DRUG EVALUATION APPARATUS” (NIKKISO CO., LTD., priority 2022, published 2025).

Tests used:
[1] = molecular target: T1, OAT1 (Homo sapiens, UniProt Q4U2R8); assay: Membrane transportation evaluation using Transwell: cellular intake of radiolabeled Adefovir by monolayer of re-seeded aggregate-cultured cells (Test 7); type: in vitro ADME
T1 construct: Adefovir is a drug as a substrate for OAT1, that is, a drug that is transported by OAT1; host or cells: human renal proximal tubule epithelial cells, aggregate-cultured and re-seeded as a monolayer on a Transwell insert
T1 sequence (Q4U2R8 1-563): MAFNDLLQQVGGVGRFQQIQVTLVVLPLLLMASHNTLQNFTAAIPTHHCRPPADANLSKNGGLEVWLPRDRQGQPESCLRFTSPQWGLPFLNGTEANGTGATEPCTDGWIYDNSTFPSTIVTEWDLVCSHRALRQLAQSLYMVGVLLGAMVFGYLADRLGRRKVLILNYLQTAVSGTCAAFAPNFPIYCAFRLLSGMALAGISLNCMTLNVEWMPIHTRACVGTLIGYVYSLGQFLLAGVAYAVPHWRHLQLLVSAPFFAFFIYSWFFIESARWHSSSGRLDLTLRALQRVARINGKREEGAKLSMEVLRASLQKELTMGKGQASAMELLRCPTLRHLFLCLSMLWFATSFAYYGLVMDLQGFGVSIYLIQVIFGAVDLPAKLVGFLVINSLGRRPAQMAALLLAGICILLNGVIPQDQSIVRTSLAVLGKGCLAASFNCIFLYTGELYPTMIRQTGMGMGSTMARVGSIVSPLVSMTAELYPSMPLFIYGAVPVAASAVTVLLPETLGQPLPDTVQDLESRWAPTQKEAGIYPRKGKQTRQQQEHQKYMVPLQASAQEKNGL
Experimental: (§1) First, aggregates were formed, and a cell suspension was prepared from the aggregates to thereby re-seed the cells on the insert in the same manner as in Test 2. The seeding density was set to 4×10^4/well (12×10^4 cells/cm^2). Then, on the day after re-seeding (within 18 to 24 hours of re-seeding), membrane transport evaluation was performed using Transwell. In the membrane transport evaluation, radiolabeled Adefovir and radiolabeled Metformin were used. Adefovir is a drug as a substrate for OAT1, that is, a drug that is transported by OAT1. Metformin is a drug as a substrate for OCT2, that is, a drug that is transported by OCT2.
(§2) An assay buffer with each substrate added to a HBSS buffer was added to insert of the Transwell and treated for a predetermined time. For the Adefovir test, the treatment time was 2 minutes. For the Metformin test, the treatment time was 10 minutes. The cells were then retrieved, a cell suspension was prepared, and the radioisotopes in the cell suspension were quantified. As a result, the amount of substrate intake into the cell from the cellular apical membrane side was evaluated. The amount of substrate intake was also evaluated in the same manner when an inhibitor of OAT1, Probenecid, was added to the assay buffer and when an inhibitor of OCT2, Cimetidine, was added to the assay buffer.
(§3) The assay buffer was also added to the well of the Transwell and treated for a predetermined time. For the Adefovir test, the treatment time was 2 minutes. For the Metformin test, the treatment time was 10 minutes. The cells were then retrieved, a cell suspension was prepared, and the radioisotopes in the cell suspensions were quantified. As a result, the amount of substrate intake into the cell from the cellular basement membrane side was evaluated. The amount of substrate intake was also evaluated in the same manner when an inhibitor Probenecid was added to the assay buffer and when an inhibitor Cimetidine was added to the assay buffer.
(§4) In FIG. 15A and FIG. 15B, “A to C” indicates the amount of substrate intake into the cell from the cellular apical membrane side. […]

[2] = molecular target: T2, OCT2 (Homo sapiens, UniProt O15244); assay: Membrane transportation evaluation using Transwell: cellular intake of radiolabeled Metformin by monolayer of re-seeded aggregate-cultured cells (Test 7); type: in vitro ADME
T2 sequence (O15244 1-555): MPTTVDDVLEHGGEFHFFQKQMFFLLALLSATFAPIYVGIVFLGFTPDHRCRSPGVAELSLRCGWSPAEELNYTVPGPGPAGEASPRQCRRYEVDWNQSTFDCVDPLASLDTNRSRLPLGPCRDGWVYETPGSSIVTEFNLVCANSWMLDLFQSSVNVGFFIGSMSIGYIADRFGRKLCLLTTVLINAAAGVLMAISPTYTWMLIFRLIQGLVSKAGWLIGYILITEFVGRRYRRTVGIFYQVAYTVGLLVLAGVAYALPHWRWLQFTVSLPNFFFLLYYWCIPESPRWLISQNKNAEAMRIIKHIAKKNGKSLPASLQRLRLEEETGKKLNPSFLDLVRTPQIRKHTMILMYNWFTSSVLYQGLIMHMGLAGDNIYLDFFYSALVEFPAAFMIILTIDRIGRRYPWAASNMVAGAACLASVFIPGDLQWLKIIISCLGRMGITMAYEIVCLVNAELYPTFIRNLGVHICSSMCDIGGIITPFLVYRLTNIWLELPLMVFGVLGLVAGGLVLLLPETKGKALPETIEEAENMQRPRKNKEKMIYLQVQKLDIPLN
Experimental: as §1, §2, §3, §4

transporter responsible for intake ([2]; concluded from decrease with inhibitor Cimetidine)	substrate intake into the cells ([2]; radiolabeled Metformin in HBSS buffer, 10 minutes, human renal proximal tubule epithelial cells 18 to 24 hours after re-seeding, FIG. 15B)	Compound	transporter responsible for intake ([1]; concluded from decrease with inhibitor Probenecid)	substrate intake into the cells ([1]; radiolabeled Adefovir in HBSS buffer, 2 minutes, human renal proximal tubule epithelial cells 18 to 24 hours after re-seeding, FIG. 15A)	amount of cellular intake, basement membrane side (B to C) versus apical membrane side (A to C) ([1]; radiolabeled Adefovir, 2 minutes, FIG. 15A)	amount of cellular intake, basement membrane side (B to C) versus apical membrane side (A to C) ([2]; radiolabeled Metformin, 10 minutes, FIG. 15B)
–	–	Nc1ncnc2c1ncn2CCOCP(=O)(O)O [Adefovir]	due to OAT1	taken into the cells	higher from the cellular basement membrane side than from the cellular apical membrane side	–
due to OCT2	taken into the cells	CN(C)C(=N)N=C(N)N [Metformin]	–	–	–	higher from the cellular basement membrane side than from the cellular apical membrane side
